Our source for the T m values is PMC13213488, “Small Molecule Activators of Protein Phosphatase 2A Exert Global Stabilizing Effects on the Scaffold PR65” (JACS Au, 2026).

The target in the experiment is T1, PR65 (Homo sapiens, UniProt P30153).
T1 construct: gene PPP2R1A; WT PR65 alone (scaffold, 15 HEAT repeats, no B or C subunit), expressed in E. coli C41 as GST fusion, GST tag cleaved with thrombin; also a variant with ybbR tags at N- and C-termini used for optical tweezers
Nature of the experiment: nanoDSF thermal shift. To be noted: melting temperature with ligand, not a shift (apo 52.7 ± 0.1 °C); 2 μM PR65, 100 μM ligand, PBS, 2 mM DTT, 10% DMSO. Format: binding.

T1 sequence (P30153 2-589): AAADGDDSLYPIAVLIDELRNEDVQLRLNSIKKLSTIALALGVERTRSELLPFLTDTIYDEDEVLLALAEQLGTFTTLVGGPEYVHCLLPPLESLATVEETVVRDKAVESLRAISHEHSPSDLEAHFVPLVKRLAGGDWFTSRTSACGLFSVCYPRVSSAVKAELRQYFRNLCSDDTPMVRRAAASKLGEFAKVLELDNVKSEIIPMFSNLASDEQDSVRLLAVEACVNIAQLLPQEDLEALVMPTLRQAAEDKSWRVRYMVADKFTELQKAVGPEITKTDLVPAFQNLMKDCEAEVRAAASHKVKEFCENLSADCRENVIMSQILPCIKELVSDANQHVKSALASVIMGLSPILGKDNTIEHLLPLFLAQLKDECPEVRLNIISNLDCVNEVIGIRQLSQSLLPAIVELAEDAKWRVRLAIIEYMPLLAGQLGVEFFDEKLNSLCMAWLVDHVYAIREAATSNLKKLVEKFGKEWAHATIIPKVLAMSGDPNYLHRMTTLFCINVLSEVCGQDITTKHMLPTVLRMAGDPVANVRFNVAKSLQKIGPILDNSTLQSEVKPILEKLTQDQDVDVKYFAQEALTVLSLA

On to DBK-766, for which the T m is 53.5 ± 0.1 °C.
